{
  "source": "paper PMC7974150",
  "about": "“Backbone assignment of E. coli NfsB and the effects of addition of the cofactor analogue nicotinic acid” (Biomolecular Nmr Assignments, 2021)",
  "target": "T1, E. coli nitroreductase NfsB (also called NfnB) (Escherichia coli, UniProt P38489)",
  "T1 sequence (P38489 2-217)": "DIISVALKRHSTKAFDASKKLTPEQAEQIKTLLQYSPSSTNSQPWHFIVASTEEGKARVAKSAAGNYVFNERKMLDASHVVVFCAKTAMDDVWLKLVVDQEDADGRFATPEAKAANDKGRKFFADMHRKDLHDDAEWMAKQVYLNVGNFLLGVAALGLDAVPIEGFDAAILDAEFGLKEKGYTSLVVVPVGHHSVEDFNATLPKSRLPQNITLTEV",
  "assay": "1D 1H NMR titration, ligand proton shifts fitted to hyperbola",
  "assay_type": "binding",
  "conditions": "read-out: Apparent Kd",
  "text": "1D 1H NMR titration, ligand proton shifts fitted to hyperbola on E. coli nitroreductase NfsB (also called NfnB)",
  "data": [
    {"smiles": "O=C(O)c1cccnc1", "note": "[nicotinate]", "values": [
      {"measurement": "Kd", "result": "1900 ± 300", "unit": "µM"}
    ]}
  ]
}
